Consider two compounds from US7432045B2 (priority 2003, dated 2008).

The subject of one data set is H5 Avian Influenza virus. The settings on record: dog.
The subject of the next data set is cornea. As to the kind of experiment: In vivo peptide toxicity, cornea. Also on record: species or system BALB/C mice. The settings on record: for blepharitis: four times a day for seven days. As for the experimental part: (i) Cornea: Four-6-week-old female BALB/C mice (Harlan Sprague Dawley, Indianapolis, Ind.) were anesthetized by halothane inhalation (3-5%). A 2.0 μL drop of serum-free 5×DMEM solution containing 6.1 mM EB, 6.1 mM EBX, 7.5 mM TAT-C, 7.5 mM n50,51 TAT-C, 7.5 mM TAT-Cd, or 11.2 mM bHOMd or serum-free DMEM only (control) was then placed on the cornea and the mice were returned to their cages. Each group consisted of 5 mice, except for 11.2 mM bHOMd, and 7.5 mM TAT-Cd, which consisted of 4 mice. Only the right eye in each mouse received the peptide. Treatments were given 4 times per day at least 2 hrs apart for 7 days. On days 1, 5, and 7, the mice were examined microscopically for evidence of blepharitis, punctate keratopathy, dendrite ulceration and geographic ulceration. Damage to the corneal epithelium was assessed by staining with 1.0% […] and examination under a microscope with blue light. Blepharitis was scored: 1+ for noticeable puffy eyelids, 2+ for puffy eyelids with moderate crusting, 3+ for eye 50% swollen shut with severe crusting, and 4+ for eye totally swollen and crusted shut (Brandt et al., 1992). Punctate keratopathy, dendrite ulceration, and geographic ulceration were scored: 1+ for <25% of the cornea involved, 2+ for 25-50% involved, 3+ for 50-75% involved, and 4+ for >75% involved. The mean disease score for each group of mice on each day was calculated by the sum of disease scores in each group on each day divided by the numbers of mice in that group. On day 7, following the last treatment, the mice were sacrificed and the eyes were removed, fixed in 10% formalin, embedded in paraffin, sectioned (5μ each), and stained with hematoxylin and eosin as we have described previously (Brandt et al., 1996). Sections were then examined for evidence of damage to the cornea, sclera, lens, and retina.

A further data set can be described thus: in vitro. Particulars: African green monkey.
Data set [1] relates to HSV-1 KOS mutant hrR3. The settings on record: read-out: IC50 (lacZ+ cells).
Data set [2] is described as follows: MTS assay, eight cell lines. The settings on record: Vero, HeLa, CV-1PD, TM-1, DP-9, NIKS and W12E cells.
In data set [3] the test system is HSV-1 KOS mutant hrR3. Particulars: 25 μM peptide.
The test system of data set [4] is hrR3. Briefly: Virucidal assay. The format is cell-based, HSV-1. As for the experimental part:
[…] The treated virus was diluted 200-fold with serum-supplemented DMEM and assayed for infectivity approximately 1 hour later in microtiter wells seeded with Vero cells (3.5×10^4 cells/well) 1 d earlier. Forty or 100 microliter volumes of diluted virus were adsorbed for 1 or 2 h at 37° C. and lacZ^+ cells were scored 8 hours later. In some experiments, aliquots of diluted virus were first dialyzed (Spectra/Por; MWCO 12-14,000) overnight at 4° C. against a 60-fold excess volume of Hepes-buffered serum-supplemented DMEM or forced by syringe through 0.22 μm membranes (Millex-GV; Millipore) before the remaining infectious virus was assayed.

The subject of data set [5] is hrR3. Particulars: read-out: IC50, infection in presence of peptide with peptide treated virions.
Data set [6] has as its system HSV-1 KOS mutant hrR3. Briefly: Inactivation of pre-adsorbed virus (virus inactivation). The data set is classed as cell-based.
A further data set concerns hrR3 virions. As to the kind of experiment: Inactivation of virions in solution. The data set is classed as cell-based, HSV-1. The settings on record: 37° C. The protocol:
Inactivation of virions: To assess the ability of peptides to inactivate virions, 3-4×10^6 pfu/mL of virus was mixed on ice with peptide in serum-free DMEM and incubated for 1 h at 4 or 37° C. Aliquots (10 μL) were diluted 1000-fold into peptide-free serum-supplemented DMEM at 23° C. and 50 μL aliquots were assayed in triplicate for infectivity in Vero cell cultures (dilution assay). Alternatively, 10 μL aliquots were diluted into 1 mL of ice-cold peptide-free serum-supplemented DMEM and the virus was pelleted as described above (centrifugation assay). Viral pellets were then resuspended in 250 μL serum-supplemented DMEM and 50 μL aliquots were assayed in triplicate for infectivity in Vero cell cultures.
Some of the virus diluted without the addition of NaCl was pelleted immediately (Control), while the rest of the diluted virus was stored at 4° C. and pelleted 19 h later. The virus was pelleted and assayed for infectivity as described in Example 1.

In data set [7] the test system is HSV-1 KOS mutant hrR3.

Structures are written as SMILES. Like-named read-outs stand apart in the source and are kept apart here. Peptide text beside a SMILES is read from it.

As usually defined, the IC50 is the concentration that inhibits the measured activity by half. As a reminder, the EC50 is the midpoint of the concentration-response curve. As to `CC(C)C[C@H](NC(=O)[C@H](C)NC(=O)[C@H](CC(C)C)NC(=O)[C@H](CC(C)C)NC(=O)[C@@H](NC(=O)[C@H](C)NC(=O)[C@@H]1CCCN1C(=O)[C@H](CC(C)C)NC(=O)[C@H](CC(C)C)NC(=O)[C@H](C)NC(=O)[C@@H](NC(=O)[C@H](C)NC(=O)[C@H](C)NC(=O)[C@H](CCCCN)NC(=O)[C@H](CCCCN)NC(=O)[C@H](CCCNC(=N)N)NC(=O)[C@@H](N)CCCNC(=N)N)C(C)C)C(C)C)C(=O)N[C@@H](CC(C)C)C(=O)N[C@@H](C)C(=O)N1CCC[C@H]1C(=O)O` [EB] (H-RRKKAAVALLPAVLLALLAP-OH), the IC50 is 500 nM in the data set on H5 Avian Influenza virus; 68 µM in the data set “in vitro”; 660 nM in the data set with HSV-1 KOS mutant hrR3 [1] (virus input 19 pfu/well); 1200 nM with HSV-1 KOS mutant hrR3 [1] (virus input 210 pfu/well); 11000 nM in the data set with HSV-1 KOS mutant hrR3 [1] (virus input 5700 pfu/well); 89 µM with hrR3 [4] (4° C., read-out: Virucidal Activity 4° C. IC50). Also, the concentration for half-maximal inhibition (IC50) in the data set with hrR3 [4] (first experiment, FIG. 8A, read-out: inhibition of infectivity of virions IC50) was 44 µM; with hrR3 [4] (second experiment, FIG. 8B, read-out: inhibition of infectivity of virions IC50), 69 µM; with hrR3 [5] (cells pretreated with peptide), 900 nM; in the data set with hrR3 [5] (non-pretreated cells), 1700 nM. Further, in the data set on cornea, the blepharitis entry was “no effect”. Also, in the data set with cornea (mouse, in vivo), the corneal pathology result is given as “no evidence of corneal pathology”. In addition, the “concentration at which cytotoxic effects were seen first” value in the data set on Vero cells amounted to 200 µM. Moreover, the “cytotoxic effects (trypan blue) in cellular resistance experiments” value in the data set on Vero cells is given as “No cytotoxic effects”. Further, in data set [2], the concentration giving a half-maximal response (EC50) was more than 100 µM. Also, in the data set on HSV-1 KOS mutant hrR3 [3], the “effect on development of lacZ+ cells when added immediately after citrate treatment” value is “no longer had any effect”. The “reversibility of virion inactivation by overnight dialysis” value with hrR3 [4] is “irreversibly inactivated”.
Turning to `N=C(N)NCCC[C@H](NC(=O)CN)C(=O)N[C@@H](CCCCN)C(=O)N[C@@H](CCCCN)C(=O)N[C@@H](CCCNC(=N)N)C(=O)N[C@@H](CCCNC(=N)N)C(=O)N[C@@H](CCC(N)=O)C(=O)N[C@@H](CCCNC(=N)N)C(=O)N[C@@H](CCCNC(=N)N)C(=O)N[C@@H](CCCNC(=N)N)C(=O)N[C@@H](CS)C(=O)O` [TAT-C, NH2-GRKKRRQRRRC-COOH], the IC50 in the data set on HSV-1 KOS mutant hrR3 [6] (33° C., read-out: Inactivation of Pre-Adsorbed Virus 33° C. IC50) was 11 µM; in the data set with HSV-1 KOS mutant hrR3 [6] (33° C., read-out: Virus Inactivation IC50 (pre-adsorbed virus)) it was 11 µM; in the data set on HSV-1 KOS mutant hrR3 [6] (33° C., read-out: virus inactivation IC50) it was 11 µM; with HSV-1 KOS mutant hrR3 [6] (37° C., read-out: Inactivation of Pre-Adsorbed Virus 37° C. IC50), 5.2 µM; in the data set on hrR3 virions (dilution or centrifugation, read-out: inactivation of virions IC50), approximately 75 µM; with hrR3 virions (read-out: Inactivation of Virions 37° C. IC50) it was 100 µM. Besides, the blepharitis result with cornea is “mild blepharitis”. Moreover, the “inhibitory effect after 1 h at 32° C.” value in the data set on HSV-1 KOS mutant hrR3 [7] (10 or 100 μM peptide) was “about 90%”. In addition, the “virus internalized after cultures were rinsed and shifted to 37° C.” value in the data set on HSV-1 KOS mutant hrR3 [7] (10 or 100 μM peptide) is given as 25-33%. The “reversibility of the inhibitory effect after removal of peptide” value in the data set on HSV-1 KOS mutant hrR3 [7] (n50,51TAT-C 10 μM, TAT-C 10 or 100 μM) is “largely irreversible”.
